{"source": "patent US20200270225A1", "about": "“Chiral Diacylhydrazine Ligands for Modulating the Expression of Exogenous Genes via an Ecdysone Receptor Complex” (Intrexon Corporation, priority 2007, published 2020)", "key": {"Microsomal metabolism": {"test": "Microsomal metabolism", "assay_type": "in vitro ADME, human", "conditions": "5 μM, 1.0 mg/mL microsomal protein, 1 mM NADPH, 60 minutes", "description": "The test compounds were prepared as 5 μM solutions in DMSO (concentration less than 0.25%), methanol, or acctonitrile. Mixed gender human liver microsomes were pooled from a ≥10 donors, and incubated with 1 mM NADPH. The test compound was incubated at 37° C. in buffer containing 1.0 mg/mL of microsomal protein with 1 mM NADPH. At 0 and 60 minutes, the mixture was sampled and monitored by LC/MS/MS for the peak area corresponding to the test compound, with the range of 10-100%. The assay was run in duplicate (N=2 separate incubations). The data reported in FIG. 15 is percent remaining of testosterone standard and percent remaining of the test compound."}, "B16 melanoma": {"system": "B16 melanoma", "test": "Anti-tumor efficacy with intratumoral transduced DCs in B16 melanoma mouse model", "assay_type": "in vivo, C57/BL6 mice", "description": "A comparative analysis of various administration routes and doses of (R)-2-ethyl-3-methoxy-benzoic acid N′-(1-tert-butyl-butyl)-N′-(3,5-dimethylbenzoyl)-hydrazide on the anti-tumor efficacy of intra-tumorally delivered DCs transduced with an adenoviral vector encoding murine interleukin-12p70 (DC-SP1(IL-12p70)) were carried out in a B16 melanoma mouse model. […] Optimal anti-tumor effects occurred at ≥30 mg/kg (R)-2-ethyl-3-methoxy-benzoic acid N′-(1-tert-butyl-butyl)-N′-(3,5-dimethyl-benzoyl)-hydrazide dose administered with (DC-SP1(IL-12p70)) therapy.\nThis drug dependent effect was associated with: transgene expression in the tumor and DLN; prolonged Ad-DCs survival in the tumor microenvironment; migration and persistence of AdDCs in the DLN; and induction of anti B16 CD8+ T cells.\nWhen tumor-free animals were re-challenged, on day 50 (post-initial tumor inoculation), these animals were refractory to B16 melanoma, but not MC38 colon carcinoma, progression."}, "[1]": {"system": "IL-12 transgene in transduced AdDCs", "test": "In vitro IL-12 transgene induction by transduced AdDCs from healthy volunteers", "assay_type": "cell-based, human", "conditions": "observed in 2 out of the 3 AdDC preparations", "description": "Immature DCs are harvested, counted and tested for viability. Approximately 6-7×10^7 DCs are transduced with the adenoviral vector at the optimal multiplicity of infection (the optimal MOI, between 500 and 1000, to be finalized) for the optimal viral adsorption time (between 2 h and 4 h, to be finalized). After transduction, the cells are washed repeatedly to remove any unadsorbed viral particles. Aliquots are set aside for sterility, endotoxin, mycoplasma, DC Phenotype and IL-12 transgene induction assays. The target dose of 5×10^7 cells is held at 4° C. in saline until release testing is complete.\nThe in vitro testing of the IL-12 transgene induction by the transduced AdDCs takes a minimum of two days for the results to be available and therefore IL-12 production in response to (R)-2-ethyl-3-methoxy-benzoic acid N′-(1-tert-butyl-butyl)-N′-(3,5-dimethyl-benzoyl)-hydrazide will not be a release criterion for the intratumoral injection of the AdDCs. […] Therefore, the in vitro IL-12 induction results are used for analysis of the treatment outcome. As such, the transduced AdDCs are used for injection after viral transduction and washing. Any left-over untransduced and transduced DCs are cryopreserved for future analysis as necessary."}}}
{"smiles": "CCC[C@@H](N(NC(=O)c1cccc(OC)c1CC)C(=O)c1cc(C)cc(C)c1)C(C)(C)C", "note": "[Example 1, (R)-3,5-Dimethyl-benzoic Acid N-(1-tert-butyl-butyl)-N′-(2-ethyl-3-methoxy-benzoyl)-hydrazide]", "values": [{"measurement": "stability to metabolism in human liver microsomes, compared", "setting": "Microsomal metabolism", "result": "slightly more stable"}, {"measurement": "protective immunity on tumor re-challenge", "setting": "B16 melanoma; 10^7 AdDCs plus 13 day ligand treatment, re-challenge day 50", "result": "protective immunity that was tumor-specific"}, {"measurement": "tumor regression and animal survival", "setting": "B16 melanoma; intratumoral AdDCs carrying murine IL-12, systemic ligand within 48 hours following AdDCs injection", "result": "complete regression of tumor and prolonged animal survival"}, {"measurement": "dose for optimal anti-tumor effects", "setting": "B16 melanoma; with DC-SP1(IL-12p70) therapy", "result": "≥ 30", "unit": "mg/kg"}, {"measurement": "anti-tumor efficacy", "setting": "B16 melanoma; with DC-SP1(IL-12p70) therapy, i.p. injection, oral gavage or diet admix", "result": "anti-tumor efficacy was demonstrated"}, {"measurement": "induced IL-12 expression level", "setting": "[1]", "result": 80, "unit": "ng/million cells/24 h"}]}
